Literature values in patent publication US20110053889A1, “Prenatal and postnatal screening and treatment of critical monosaccharide deficiencies for neurologic and immunologic function” (priority 2008, published 2011).
Like-named read-outs stand apart in the source and are kept apart here. Values belong to the compound of their own block, whether it stands above or below them.

How the values were obtained:
[1] = for Estimated Safe Daily Dose (mg) in 68 kg human: 68 kg human (Gardiner, 2004); for Estimated Safe Daily Dose: based on ADME and safety data and margin-of-safety (Gardiner, 2004)
[2] = ingested (Martin et al., 1998)
[3] = radiolabeled injection (Martin et al., 1998)
[4] = patient with LAD II (Marquardt et al., 1999)
[5] = oral 50-100 mg/kg body weight, healthy volunteers (Marquardt et al., 1999)
[6] = oral single doses (Alton et al., 1997)
[7] = system: E. coli; details: injected, rats (Michaels et al., 1983)
[8] = system: E. coli; details: topical solution applied to maternal vaginas prior to delivery; control 77% (Cox and Taylor, 1990)
[9] = oral 0.07-0.21 g/kg body weight, humans (Alton et al., 1997)
[10] = rats
[11] = oral 1 gram, humans (Talent and Gracy, 1996)

Compound: O=C[C@H](O)[C@@H](O)[C@@H](O)[C@H](O)CO [Galactose, D-galactose]
- Estimated Safe Daily Dose (mg) in 68 kg human [1]: 50,000 mg
- Estimated Safe Daily Dose [1]: 735 mg/kg/day

Compound: C[C@H](O)[C@@H](O)[C@@H](O)[C@H](O)C=O [Fucose, L-fucose]
- clinical outcome of oral supplementation [4]: clinical disappearance of infections and fever
- Estimated Safe Daily Dose (mg) in 68 kg human [1]: 34,000 mg
- Estimated Safe Daily Dose [1]: 500 mg/kg/day
- clearance half-time [5]: 100 min
- time to peak serum fucose concentration [5]: 1 h

Compound: O=C[C@@H](O)[C@@H](O)[C@H](O)[C@H](O)CO [Mannose, mannose]
- single dose that induces osmotic diarrhea [6]: > 200 mg/kg body wt
- time to reduction of E. coli bacteriuria [7]: ≤ 1 days
- E. coli bacteremia in newborns [8]: 25%
- Estimated Safe Daily Dose (mg) in 68 kg human [1]: 53,000 mg
- Estimated Safe Daily Dose [1]: 779 mg/kg/day
- clearance half-time [9]: about 4 hours
- time to peak blood mannose concentration [9]: approximately 90 minutes
- increase of glycoprotein incorporation in organs ([10]; at 1-8 hours): 2- to 6 fold
- time to absorption into the serum ([10]; oral, radiolabeled): ≤ 1 h

More lines, main results first:

- Estimated Safe Daily Dose (mg) in 68 kg human [1]: 150,000 mg
Compound: O=C[C@H](O)[C@@H](O)[C@H](O)[C@H](O)CO [Glucose, D-glucose]
- Estimated Safe Daily Dose [1]: 2,200 mg/kg/d

- fraction of the dose oxidized [2]: about one-half
- protein-bound radioactivity in the form of sialic acid [3]: 25-30%
Compound: N[C@H]1C(O)O[C@H](CO)[C@@H](O)[C@@H]1O (stereo partly shown) [Glucosamine, glucosamine]

- time to significant rise in serum levels of GlcNAc [11]: ≤ 1 h
- Estimated Safe Daily Dose (mg) in 68 kg human [1]: 1,000 mg
Compound: CC(=O)N[C@H]1C(O)O[C@H](CO)[C@@H](O)[C@@H]1O (stereo partly shown) [N-acetylglucosamine]
- Estimated Safe Daily Dose [1]: 15 mg/kg/day

- Estimated Safe Daily Dose (mg) in 68 kg human [1]: 140 mg
Compound: CC(=O)N[C@H]1[C@H]([C@H](O)[C@H](O)CO)OC(O)(C(=O)O)C[C@@H]1O (stereo partly shown) [Sialic Acid, N-acetylneuraminic acid]
- Estimated Safe Daily Dose [1]: 2 mg/kg/day
